Literature values in patent publication US20040023937A1, “Anti-cancer formulation” (Greystone Medical Group, Inc., priority 2002, published 2004).

Key:
[1] = test system: MMP-2; conditions: second of two gelatin degrading MMP's; reported
[2] = test system: human fibrosarcoma cells; conditions: reported
[3] = test system: MMP-9; conditions: gelatin degrading matrix metalloproteinase; mechanism reported to be thought to involve it

SMILES: C[C@H]1[C@H](C)CC[C@]2(C(=O)O)CC[C@]3(C)C(=CC[C@@H]4[C@@]5(C)CC[C@H](O)C(C)(C)[C@@H]5CC[C@]43C)[C@H]12 [Ursolic acid]
- effect on MMP-2 [1]: no effect
- anti-invasive activity [2]: anti-invasive activity
- down-regulation of MMP-9 [3]: down-regulation
